The record followed here is article PMC11788822, “Uncovering the potent antimicrobial activity of squaramide based anionophores – chloride transport and membrane disruption” (Chemical Science, 2025).

One data set relates to S. aureus cells. As to the kind of experiment: MQAE chloride influx assay. The data set is classed as cell-based, Staphylococcus aureus. The settings on record: 5 min, MQAE fluorescence fitted to Stern–Volmer equation. How it is done:
To study this, we utilised N-(ethoxycarbonylmethyl)-6-methoxyquinolinium bromide (MQAE) as a fluorescent reporter for cellular Cl^− levels. MQAE fluorescence is highly sensitive to Cl^− flux, where increased cytosolic Cl^− concentration gives rise to a collisional quenching effect. […] To do this, cells were pre-treated with MQAE and then exposed to varying concentrations of 1, 2 and 4, whereafter MQAE fluorescence was read at T = 5 min, and plotted relative to control (Fig. 3).
Furthermore, using the fluorescence data acquired from these assays, and fitting to the Stern–Volmer equation, we could approximate the increased concentration of Cl^− with respect to basal fluorescence for each of the concentrations studied (Table 3). […]
MQAE chloride influx assay
(§1) From an overnight culture brought to stationary phase (OD600 = ~1.0) was taken samples, brought to an OD600 = 0.2, which were treated with N-Ethoxycarbonylmethyl-6-methoxyquinolium Bromide (MQAE) (10 mM) for 1 h at 37 0C. Subsequently, cells were washed with & resuspended in PBS. 2 mL of samples were taken & transferred to a fluorescence cuvette, whereupon fluorescence was read (λexc = 350 nm (slit width = 5 nm) λem = 460 nm (slit width = 5 nm)) using a Cary Eclipse Fluorescence Spectrophotometer (Agilent Technologies). Subsequently samples were treated with the Compound of interest for 5 mins whereafter fluorescence was measured as previous, with intensity plotted relative to control, […]
or measured over the course of 2 hrs, starting at T0 (upon addition of compound).
Alternatively, 200 µL aliquots of cell suspension were added to a 96-well plate, to the desired quantity, and were either untreated (control), or treated with the compound of interest for 5 mins, whereafter fluorescence was read using a BMG Labtech Clariostar Plus platereader, and plotted relative to control. […]
Subsequently, cells were resuspended in 1 mL PBS, and treated with a the respective fluorophore or compound of interest at the specified concentration or […]

Data set [1] has as its system methicillin-resistant S. aureus (MRSA). As to the kind of experiment: Growth inhibition assay, MRSA. The data set is classed as cell-based, Staphylococcus aureus. Conditions: 24 h. Here is the method:
(§2) To determine IC50/80 values, growth (optical density) of S. aureus, methicillin-resistant S. aureus (MRSA), P. aeruginosa, and K. pneumoniae when treated with a range of concentrations of each active compound in vitro was measured at 600 nm after a 24 h incubation period at 37 °C. Each compound was studied for activity below […], and those showing little activity above 200 μM, were noted as such, and omitted from further study.
Staphylococcus aureus culture conditions […]
Methicillin-resistant Staphylococcus aureus culture conditions
Methicillin-resistant S. aureus (clinical isolate – St. James’ University Hospital, Dublin) was cultured at 37 °C in Nutrient broth (Oxoid), containing 25 µg/mL Ampicillin in an orbital shaker at 200 rpm. Stocks were kept on nutrient agar containing 25 µg/mL Ampicillin, stored at 4 °C for up to 2 months, or as glycerol stocks (50/50 glycerol:culture), stored at -70 °C indefinitely. […]
(§3) Bacterial cultures were brought to early stationary phase overnight, in nutrient broth (containing 25/50 µg/mL Ampicillin for MRSA/K. pneumoniae, respectively) at 37 °C. Cultures were diluted to an OD600 = 0.01. Aliquots of Culture (100 µl) were added to 100 µL serially diluted compound (200 – 0.78 µM) in nutrient broth in a 96-well plate (Sarstedt, Germany).
(§4) Plates were incubated at 37 °C for 24 h and growth was measured at 600 nm, where growth was measured and represented relative to control. […]

For a further data set, the system named is S. aureus. As to the kind of experiment: Growth inhibition assay, S. aureus. Conditions: Staphylococcus aureus, growth (OD 600 nm) relative to control, 24 h, 37 °C. Format: cell-based, Staphylococcus aureus. Here is the method:
as §2
Staphylococcus aureus culture conditions
S. aureus (ATCC33951) was cultured at 37 °C in Nutrient broth (Oxoid), in an orbital shaker at 200 rpm. Stocks were kept on nutrient agar, stored at 4 °C for up to 2 months, or as glycerol stocks (50/50 glycerol:culture), stored at -70 °C indefinitely. […]
as §3, §4

The next data set has as its system G. mellonella larvae. As to the kind of experiment: Galleria mellonella in vivo toxicity. The settings on record: larvae dosed at 10× IC50, monitored over 72 h. Here is the method: Next, to assess the medicinal validity of compounds 1, 2, and 4 we investigated the in vivo toxicity of these compounds using the Galleria mellonella model organism. This model has been introduced as an alternative model to study microbial infections as it can be easily and inexpensively obtained and doesn't require specialised lab equipment or impose significant ethical constraints. […] Thus, G. mellonella larvae were dosed with a concentration of each compound at 10× IC50 and monitored for signs of toxicity or death over a 72 hour window.
as §3
Plates were incubated at 37 °C for 24 h and growth was measured at 600 nm, where growth was measured and represented relative to control.
Galleria mellonella toxicity studies
To ascertain inherent compound toxicity, 10 healthy G. mellonella larvae were selected and weighed ensuring to keep larval weight approx. 0.25 g (+ 0.05 g). This constituted one sample set for experiments. […] Larvae were subsequently monitored for up to […], for signs of toxicity, melanisation and death. […]
as §1, with “Subsequently, cells were washed with & resuspended in PBS.” left out

The nature of data set [2]: 1H NMR titration with TBACl, Cl− binding. The settings on record: association constant towards Cl−, compound 2.5 mM, 95% DMSO-d6, 1:1 binding model (Bindfit), errors below 10%. Here is the method: To verify if 1–6 formed host–guest complexes with Cl^− in solution, ^1H NMR titrations of each compound (2.5 mM) with TBACl were carried out in DMSO-d6. Increasing equivalents of Cl^− were incrementally added, with spectral information obtained upon addition of each molar equivalent of Cl^−. […] Taking 1 as an example (Fig. 2), upon addition of sequential aliquots of Cl^− there is a clear downfield shift of both squaramide NHs, with minor contributions to the binding cleft derived from the ortho-aryl protons of the aniline of 1. The binding data from each titration was fitted to a 1 : 1 binding model using the Bindfit[36] open access software, and the results are tabulated below (Table 1), alongside the respective Hammett constant for the relevant substitution pattern.[37] […] This aligns with previously reported receptors,[38] where compounds containing CF3 substituents in particular are known to have increased anion binding affinity as well as transport ability.[39]

The mark [3] stands for this setting: Staphylococcus aureus, MRSA, read-out: MRSA IC50, growth (OD 600 nm) relative to control, 24 h, 37 °C.
The mark [4] stands for this setting: Staphylococcus aureus, MRSA, read-out: MRSA IC80, growth (OD 600 nm) relative to control, 24 h, 37 °C.

Where two headings read alike, the source gives them in different places.

Broadly, the IC50 is the concentration at which inhibition is half-maximal. As a reminder, the IC80 is the point of the concentration-response curve where the effect stands at 80%. Turning to `O=c1c(Nc2ccc([N+](=O)[O-])cc2)c(NC23CC4CC(CC(C4)C2)C3)c1=O` [Compound 4], the “Increase in chloride concentration from basal level [Clθ] (mM)” value (“Increase in chloride concentration” for short) is listed as “+0.61 (±0.07) mM” in the data set with S. aureus cells (10 μM compound), “+1.74 (±0.02) mM” in the data set with S. aureus cells (50 μM compound), “+3.57 (±0.18) mM” in the data set on S. aureus cells (100 μM compound) and “+10.19 (±0.08) mM” in the data set with S. aureus cells (200 μM compound). For the same compound, the half-inhibitory concentration (IC50) in data set [1] (setting [3]) stood at 50 µM; with S. aureus it was 170 µM. The IC80 is over 200 µM in data set [1] (setting [4]) and over 200 µM in data set [1] (read-out: MRSA IC80, growth (OD 600 nm) relative to control, 37 °C). For the same compound, the “signs of toxicity or death” value in the data set on G. mellonella larvae is recorded as “no appreciable signs of acute/chronic toxicity”. Also, the “K a” value in data set [2] is 202 M⁻¹.
As to `O=c1c(Nc2cc(C(F)(F)F)cc(C(F)(F)F)c2)c(NC23CC4CC(CC(C4)C2)C3)c1=O` [Compound 1], the “Increase in chloride concentration” value is given as “+0.31 (±0.02) mM” with S. aureus cells (10 μM compound), “+1.44 (±0.16) mM” in the data set with S. aureus cells (50 μM compound), “+4.22 (±2.01) mM” in the data set with S. aureus cells (100 μM compound) and “+13.31 (±3.05) mM” with S. aureus cells (200 μM compound). The IC50 in data set [1] (setting [3]) is 1.56 µM; in data set [1] (read-out: MRSA IC50, growth (OD 600 nm) relative to control, 37 °C) it was 1.6 µM; in the data set on S. aureus, 0.781 µM. The IC80 in data set [1] (setting [4]) is 200 µM; in the data set with S. aureus, about 200 µM. Also, the “signs of toxicity or death” value in the data set with G. mellonella larvae was “no appreciable signs of acute/chronic toxicity”. Moreover, the “K a” value in data set [2] was determined as 235 M⁻¹.
Turning to `O=c1c(Nc2ccc(Cl)c(Cl)c2)c(NC23CC4CC(CC(C4)C2)C3)c1=O` [Compound 2], the “Increase in chloride concentration” value in the data set with S. aureus cells (10 μM compound) was “+0.21 (±0.02) mM”; in the data set with S. aureus cells (50 μM compound), “+1.53 (±0.07) mM”; in the data set with S. aureus cells (100 μM compound) it was “+2.91 (±0.02) mM”; in the data set on S. aureus cells (200 μM compound) it was “+5.49 (±0.01) mM”. In addition, the half-inhibitory concentration (IC50) in data set [1] (setting [3]) is 25 µM; in the data set on S. aureus it was 62.5 µM. Moreover, the 80% effect concentration (IC80) was over 200 µM in data set [1] (setting [4]) and 250 µM with S. aureus. Also, the “MRSA IC80” value in data set [1] (growth (OD 600 nm) relative to control, 37 °C) is on record as “exceeded the testing range”. In the data set with G. mellonella larvae, the “signs of toxicity or death” value is on record as “no appreciable signs of acute/chronic toxicity”. Moreover, the “K a” value in data set [2] was found to be 263 M⁻¹.
